Test results taken from ChEMBL document CHEMBL1145316, “Synthesis of novel tricyclic oxazolidinones by a tandem SN2 and SNAr reaction: SAR studies on conformationally constrained analogues of Linezolid” (2006).
Values after ≈ are worked out from the molar mass of the structure shown.

What was measured:
Type in all cases: functional
Staphylococcus aureus [1] = test: Antibacterial activity against Staphylococcus aureus ATCC 29213
Enterococcus faecium = test: Antibacterial activity against vancomycin-resistant Enterococcus faecium ATCC 12202
Enterococcus faecalis [2] = test: Antibacterial activity against vancomycin-resistant Enterococcus faecalis NCTC 12201
Staphylococcus aureus [3] = test: Antibacterial activity against methicillin-resistant Staphylococcus aureus ATCC 33591
Staphylococcus aureus [4] = test: Antibacterial activity against Staphylococcus aureus ATCC 49951
Enterococcus faecalis [5] = test: Antibacterial activity against vancomycin-sensitive Enterococcus faecalis ATCC 29212

SMILES	MIC (Staphylococcus aureus [1])	MIC (Enterococcus faecium)	MIC (Enterococcus faecalis [2])	MIC (Staphylococcus aureus [3])	MIC (Staphylococcus aureus [4])	MIC (Enterococcus faecalis [5])
CC(=O)NC[C@H]1CN(c2ccc3c(c2)OC[C@@H]2CCCN32)C(=O)O1	8 µg/mL (≈ 24.1 µM)	16 µg/mL (≈ 48.3 µM)	16 µg/mL (≈ 48.3 µM)	4 µg/mL (≈ 12.1 µM)	4 µg/mL (≈ 12.1 µM)	16 µg/mL (≈ 48.3 µM)
COC(=S)NC[C@H]1CN(c2cc(F)c3c(c2)N(C)C[C@@H]2CCCN32)C(=O)O1	> 32 µg/mL	32 µg/mL (≈ 81.1 µM)	> 32 µg/mL	> 32 µg/mL	> 32 µg/mL	> 32 µg/mL
CC(=O)NC[C@H]1CN(c2ccc3c(c2)SC[C@@H]2CCCN32)C(=O)O1	8 µg/mL (≈ 23 µM)	8 µg/mL (≈ 23 µM)	8 µg/mL (≈ 23 µM)	8 µg/mL (≈ 23 µM)	8 µg/mL (≈ 23 µM)	8 µg/mL (≈ 23 µM)
CC(=O)NC[C@H]1CN(c2ccc3c(c2)N(C=O)C[C@@H]2CCCN32)C(=O)O1	> 256 µg/mL	> 256 µg/mL	> 256 µg/mL	> 256 µg/mL	> 256 µg/mL	> 256 µg/mL
CC(=O)NC[C@H]1CN(c2ccc3c(c2)S(=O)(=O)C[C@@H]2CCCN32)C(=O)O1	> 32 µg/mL	> 32 µg/mL	> 32 µg/mL	> 32 µg/mL	> 32 µg/mL	> 32 µg/mL
CC(=O)NC[C@H]1CN(c2cc(F)c3c(c2)SC[C@@H]2CCCN32)C(=O)O1	2 µg/mL (≈ 5.47 µM)	2 µg/mL (≈ 5.47 µM)	1 µg/mL (≈ 2.74 µM)	1 µg/mL (≈ 2.74 µM)	1 µg/mL (≈ 2.74 µM)	2 µg/mL (≈ 5.47 µM)
C/C(S)=N/C[C@H]1CN(c2cc(F)c3c(c2)SC[C@@H]2CCCN32)C(=O)O1	0.5 µg/mL (≈ 1.31 µM)	0.25 µg/mL (≈ 0.655 µM)	0.25 µg/mL (≈ 0.655 µM)	0.25 µg/mL (≈ 0.655 µM)	0.5 µg/mL (≈ 1.31 µM)	0.5 µg/mL (≈ 1.31 µM)
CC(=O)NC[C@H]1CN(c2ccc3c(c2)N(C(=O)OCc2ccccc2)C[C@@H]2CCCN32)C(=O)O1	> 32 µg/mL	> 32 µg/mL	> 32 µg/mL	> 32 µg/mL	> 32 µg/mL	> 32 µg/mL
CC(=O)NC[C@H]1CN(c2ccc3c(c2)N(C(=O)CCl)C[C@@H]2CCCN32)C(=O)O1	> 256 µg/mL	> 256 µg/mL	> 256 µg/mL	> 256 µg/mL	> 256 µg/mL	> 256 µg/mL
COC(=S)NC[C@H]1CN(c2ccc3c(c2)SC[C@@H]2CCCN32)C(=O)O1	0.5 µg/mL (≈ 1.32 µM)	0.5 µg/mL (≈ 1.32 µM)	0.25 µg/mL (≈ 0.659 µM)	0.25 µg/mL (≈ 0.659 µM)	1 µg/mL (≈ 2.63 µM)	0.25 µg/mL (≈ 0.659 µM)
CNC(=S)NC[C@H]1CN(c2cc(F)c3c(c2)SC[C@@H]2CCCN32)C(=O)O1	2 µg/mL (≈ 5.04 µM)	1 µg/mL (≈ 2.52 µM)	0.5 µg/mL (≈ 1.26 µM)	0.5 µg/mL (≈ 1.26 µM)	0.5 µg/mL (≈ 1.26 µM)	1 µg/mL (≈ 2.52 µM)
CC(=O)NC[C@H]1CN(c2cc(F)c3c(c2)N(C)C[C@@H]2CCCN32)C(=O)O1	> 32 µg/mL	32 µg/mL (≈ 88.3 µM)	> 32 µg/mL	> 32 µg/mL	> 32 µg/mL	> 32 µg/mL
CC(=O)NC[C@H]1CN(c2ccc3c(c2)N(C(C)=O)C[C@@H]2CCCN32)C(=O)O1	> 256 µg/mL	> 256 µg/mL	> 256 µg/mL	> 256 µg/mL	> 256 µg/mL	> 256 µg/mL
COC(=S)NC[C@H]1CN(c2cc(F)c3c(c2)SC[C@@H]2CCCN32)C(=O)O1	1 µg/mL (≈ 2.52 µM)	0.5 µg/mL (≈ 1.26 µM)	0.5 µg/mL (≈ 1.26 µM)	0.5 µg/mL (≈ 1.26 µM)	1 µg/mL (≈ 2.52 µM)	1 µg/mL (≈ 2.52 µM)
CC(=O)NC[C@H]1CN(c2ccc(N3CCOCC3)c(F)c2)C(=O)O1 [LINEZOLID]	–	2 µg/mL (≈ 5.93 µM)	–	1 µg/mL (≈ 2.96 µM)	–	–
CN[C@H](CC(C)C)C(=O)N[C@H]1C(=O)N[C@@H](CC(N)=O)C(=O)N[C@H]2C(=O)N[C@H]3C(=O)N[C@H](C(=O)N[C@H](C(=O)O)c4cc(O)cc(O)c4-c4cc3ccc4O)[C@H](O)c3ccc(c(Cl)c3)Oc3cc2cc(c3O[C@@H]2O[C@H](CO)[C@@H](O)[C@H](O)[C@H]2O[C@H]2C[C@](C)(N)[C@H](O)[C@H](C)O2)Oc2ccc(cc2Cl)[C@H]1O [VANCOMYCIN]	–	> 32 µg/mL	> 32 µg/mL	–	–	2 µg/mL (≈ 1.38 µM)
